Article PMC7615053 (Nature methods, 2023)
Where two headings read alike, the source gives them in different places.

Key:
GRABNE1m [1] = tested on: GRABNE1m
nLightR [2] = biological target: T1, nLightR (Physeter macrocephalus, UniProt A0A2Y9EW94); assay: Ligand perfusion on acute brain slices; parameters: species or system sperm whale
T1 sequence (A0A2Y9EW94 with tags, fused parts or gaps): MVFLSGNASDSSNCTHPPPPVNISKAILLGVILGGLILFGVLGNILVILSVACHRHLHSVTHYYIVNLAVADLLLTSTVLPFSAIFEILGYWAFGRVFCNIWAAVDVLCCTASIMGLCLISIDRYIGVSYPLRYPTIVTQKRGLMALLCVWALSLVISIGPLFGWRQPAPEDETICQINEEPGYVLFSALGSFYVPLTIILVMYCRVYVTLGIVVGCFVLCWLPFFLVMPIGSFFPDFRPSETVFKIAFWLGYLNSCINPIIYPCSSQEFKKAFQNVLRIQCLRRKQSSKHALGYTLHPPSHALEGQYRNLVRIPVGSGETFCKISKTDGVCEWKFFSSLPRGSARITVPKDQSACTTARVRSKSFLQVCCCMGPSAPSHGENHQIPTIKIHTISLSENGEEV

nLightG [3] = biological target: T2, nLightG (Physeter macrocephalus, UniProt A0A2Y9EW94); assay: Ligand perfusion on acute brain slices; parameters: species or system sperm whale
T2 sequence (A0A2Y9EW94 with tags, fused parts or gaps): T1 sequence (A0A2Y9EW94 with tags, fused parts or gaps)

GRABNE1m [4] = assay: Confocal imaging of GRABNE1m in HEK293T cells; assay type: cell-based
nLightG [5] = biological target: T2, nLightG; assay: Confocal imaging of nLightG in HEK293T cells; assay type: cell-based, sperm whale; details: for fluorescence response of nLightG to neurotransmitter: 10 μM, HEK293T cells
[6] = tested on: tail-lift-induced NE release; assay: Fiber photometry in lateral hypothalamus during tail-lifting; assay type: in vivo, mouse; details: trazodone 1 mg/kg or yohimbine 4 mg/kg, i.p., mice
nLightR [7] = biological target: T1, nLightR; assay: Confocal imaging of nLightR in HEK293T cells; assay type: cell-based, sperm whale; details: for fluorescence response of nLightR to neurotransmitter: 10 μM, HEK293T cells
[8] = tested on: green fluorescent NE indicator prototype (sperm whale Alpha-1 AR); assay: Fluorescence response of the green NE indicator prototype; assay type: cell-based; details: green prototype with fluorescent protein module from dLight1.3b
nLightG [9] = biological target: T2, nLightG; assay: NanoBiT complementation assay in HEK293T cells; assay type: cell-based, sperm whale; details: NE 10 μM
nLightR [10] = biological target: T1, nLightR; assay: Intracellular calcium signaling; assay type: cell-based, sperm whale; details: NE 10 μM, HEK293T
nLightR [11] = biological target: T1, nLightR; assay: NanoBiT complementation assay in HEK293T cells; assay type: cell-based, sperm whale; details: NE 10 μM
nLightG [12] = biological target: T2, nLightG; assay: Intracellular calcium signaling; assay type: cell-based, sperm whale; details: NE 10 μM, HEK293T
swAlpha-1 AR [13] = assay: NanoBiT complementation assay in HEK293T cells; assay type: cell-based, sperm whale; details: NE 10 μM
swAlpha-1 AR [14] = assay type: cell-based, sperm whale; details: NE 10 μM, wild-type swAlpha-1 AR, HEK293T
[15] = biological target: T3, sperm whale-based indicator (Alpha-1 AR, red prototype) (Physeter macrocephalus, UniProt A0A2Y9EW94); assay: Dose-response of the sperm whale-based red indicator prototype in HEK293T cells; assay type: cell-based
T3 sequence (A0A2Y9EW94 with tags, fused parts or gaps): T1 sequence (A0A2Y9EW94 with tags, fused parts or gaps)

nLightG [16] = biological target: T2, nLightG; assay: Plate reader dose-response of nLightG in HEK293T cells; assay type: cell-based, sperm whale
GRABNE1m [17] = details: HEK293T cells
nLightR [18] = biological target: T1, nLightR; assay: Plate reader dose-response of nLightR in HEK293T cells; assay type: cell-based, sperm whale
human DRD1 = details: DA 10 μM, DRD1 (positive control)
[19] = tested on: optogenetically-evoked NE signals; assay type: in vivo, mouse; details: yohimbine 4 mg/kg i.p., vHPC, isoflurane anesthesia, 5 Hz LC stimulation
[20] = tested on: optogenetically-evoked NE release; assay: Dual-site fiber photometry in LC and dHPC during optogenetic LC stimulation; assay type: in vivo, mouse; details: desipramine 10 μg/g i.p., awake mice
[21] = trazodone 10 μM after NE 50 μM, brain slices
[22] = after NE 10 μM, Trz 10 μM, HEK293T cells and neurons

O=c1n(CCCN2CCN(c3cccc(Cl)c3)CC2)nc2ccccn12 [trazodone]
effect on NE-induced response (GRABNE1m [1]; [21]): no significant effect
effect on NE-induced response (nLightR [2]; [21]): largely reversed
effect on NE-induced response (nLightG [3]; [21]): largely reversed
effect of antagonist on NE-induced activation of GRABNE1m (GRABNE1m [4]; after NE 10 μM, Trz 100 nM, Yoh 100 nM, HEK293T): not affected
effect of antagonist on NE-induced activation of nLightG (nLightG [5]; [22]): fully reversed
effect on tail-lift-induced GRABNE1m signals [6]: no effect
effect on tail-lift-induced response of nLightG [6]: significantly reduced
effect on tail-lift-induced response of nLightR [6]: significantly reduced
effect of antagonist on NE-induced activation of nLightR (nLightR [7]; [22]): fully reversed

CNC[C@H](O)c1ccc(O)c(O)c1 [epinephrine]
fluorescence response of nLightG to neurotransmitter (nLightG [5]): significant fluorescence response
fluorescence response of nLightR to neurotransmitter (nLightR [7]): significant fluorescence response

NC[C@H](O)c1ccc(O)c(O)c1 [NE, norepinephrine]
ΔF/F0 response [8]: approximately 1000%
coupling to mini-Gq, mini-Gs or mini-Gi (nLightG [9]): did not lead to a significant coupling
recruitment of β-arrestin-2 (nLightG [9]): no recruitment
intracellular Ca2+ concentration (nLightR [10]): did not induce a significant increase
coupling to mini-Gq, mini-Gs or mini-Gi (nLightR [11]): did not lead to a significant coupling
recruitment of β-arrestin-2 (nLightR [11]): no recruitment
intracellular Ca2+ concentration (nLightG [12]): did not induce a significant increase
coupling to mini-Gi (swAlpha-1 AR [13]): no significant coupling
coupling to mini-Gq and mini-Gs (swAlpha-1 AR [13]): significant coupling
intracellular Ca2+ concentration (swAlpha-1 AR [14]): significant increase
fluorescence response of nLightG to neurotransmitter (nLightG [5]): significant fluorescence response
fluorescence response of nLightR to neurotransmitter (nLightR [7]): significant fluorescence response
EC50 [15]: 0.574 µM

NCCc1ccc(O)c(O)c1 [DA, dopamine]
response to DA relative to response to NE (GRABNE1m [1]; 50 μM, mouse LH brain slices): about 19%
response to DA relative to response to identical concentration of NE (nLightR [2]; 50 μM, mouse LH brain slices): ~3%
response to DA relative to response to identical concentration of NE (nLightG [3]; 50 μM, mouse LH brain slices): about 12%
agonist character at nLightG (nLightG [16]): partial agonist
EC50 of DA relative to that of NE (nLightG [16]; nLightG): approximately 30 fold
EC50 for DA relative to that for NE (GRABNE1m [17]): 8 fold
maximal response to DA as fraction of the response to NE (GRABNE1m [17]): 35%
agonist character at nLightR (nLightR [18]): partial agonist
EC50 of DA relative to that of NE (nLightR [18]; nLightR): approximately 30 fold
fluorescence response of nLightG to neurotransmitter (nLightG [5]): significant fluorescence response
recruitment of β-arrestin-2 (human DRD1): significant recruitment
fluorescence response of nLightR to neurotransmitter (nLightR [7]): significant fluorescence response
EC50 [15]: 21.5 µM

COC(=O)[C@@H]1[C@H]2C[C@H]3c4[nH]c5ccccc5c4CCN3C[C@@H]2CC[C@@H]1O [yohimbine]
effect on optogenetically-evoked NE signals monitored via GRABNE1m [19]: significantly attenuated
effect on optogenetically-evoked NE signals reported by nLightG [19]: did not have a significant effect
effect of antagonist on NE-induced activation of GRABNE1m (GRABNE1m [4]): fully inactivated
effect on tail-lift-induced GRABNE1m signals [6]: strongly attenuated
effect on tail-lift-induced response of nLightG [6]: increased
effect on tail-lift-induced response of nLightR [6]: increased

CNCCCN1c2ccccc2CCc2ccccc21 [desipramine]
effect on magnitude and decay kinetics of the nLightG response in LC [20]: significant increase
